Assay results reported in patent publication US11712468B2, “CD70 combination therapy” (Argenx BV, priority 2018, dated 2023).
Read-outs that look alike come from different tables or passages of the source.

Tests used:
NB4 AML cells = assay: AML cell killing with NK cells, Annexin V viable cell count at 72 h (IC50 and Chou-Talalay synergy); format: cell-based
Method: (§1) Initially, cells from each AML cell line were treated with decitabine, cusatuzumab or venetoclax alone to determine the IC50 for each treatment. 10^5 AML cells were treated with a concentration range of cusatuzumab (0.1, 1.0 and 10 μg/ml), venetoclax (0.5 and 200 nM), decitabine (0.01-1 μM) or vehicle in the presence of CFSE-labelled NK cells derived from healthy individuals (ratio 1:1). The assay was performed in triplicate.
(§2) To determine synergy, a constant combination ratio experiment was carried out at equipotency ratio (IC501/IC502, or IC501/IC502/IC503) so that each drug contributed equally to cell killing. Combination drug dose responses were assessed in two technical replicates for every dose/dose combination as previously described (Riether et al., Sci Transl Med (2015) 7(298); 298ra119.
(§3) NOMO-1, MOLM-13, NB-4 or MV4-11 AML cell lines were treated with vehicle, decitabine, cusatuzumab or venetoclax alone, a double combination of venetoclax and decitabine, decitabine and cusatuzumab, or venetoclax and cusatuzumab, or a triple combination of decitabine, cusatuzumab and venetoclax. All combinations were tested at three high and three low concentrations (above and below the identified IC50s) and in a constant ratio. Cells were cultured in the presence of CFSE-labeled NK cells (ratio 1:1). Viable AML cell numbers were assessed 72 hours later by Annexin V staining, and the effect of drug treatment was calculated as the ratio of surviving cells to vehicle-treated cells.
(§4) The Combination Index (CI) was calculated and plotted against Fraction affected (Fa) using CompuSyn software. The resultant plot of the combination index (CI) against fraction affected (Fa) for all combinations is shown in FIG. 1, with the individual combinations shown in FIGS. 2A-2D.
(§5) Fa values of 0, 0.5, and 1 correspond to 0, 50, and 100% killed cells. A CI of <1, 1, >1 represents synergism, additivity, and antagonism, respectively. IC50s indicates Fa values reached for the combination of respective IC50 concentrations. The principles and advantages of the Fa-CI plot method of assessing synergism are provided in, for example, Chou T C, Cancer Research (2010) 70(2); 440-6 and Zhao et al. Front Biosci (Elite Ed). (2010) 2; 241-249 (each of which is incorporated herein by reference in its entirety).

NOMO-1 AML cells = assay: as above; format: cell-based; conditions: Homo sapiens
Method: as §1, §2, §3, §4, §5

MV4-11 AML cells = assay: as above; format: cell-based; conditions: Homo sapiens
Method: as §1, §2, §3, §4, §5

MOLM-13 AML cells = assay: as above; format: cell-based; conditions: Homo sapiens
Method: as §1, §2, §3, §4, §5

[1] = cited from earlier work
CD70 expression = assay: CD70 mRNA and protein expression in AML cells; format: cell-based; conditions: AML cells (MOLM-13, NOMO-1) in the presence of venetoclax
Method: FIG. 9: CD70 mRNA expression (as percentage of housekeeping gene) following treatment with vehicle (Veh) or venetoclax (Ven) for 24 or 48 hrs.
FIG. 10: CD70 protein and mRNA expression by MOLM-13 and NOMO-1 cells in the presence (gray bars) and absence (black bars) of venetoclax. Significance was determined using a Student's t-test. MFI=mean fluorescence intensity. *** P<0.001.
The effect of venetoclax on expression of CD70 at both the mRNA and protein level was assessed.

CD27 signalling = conditions: cited from earlier work
CD70 = target: T1, CD70 (Homo sapiens, UniProt P32970); conditions: Silence et al. (2014); cited from earlier work
T1 sequence (P32970 1-193): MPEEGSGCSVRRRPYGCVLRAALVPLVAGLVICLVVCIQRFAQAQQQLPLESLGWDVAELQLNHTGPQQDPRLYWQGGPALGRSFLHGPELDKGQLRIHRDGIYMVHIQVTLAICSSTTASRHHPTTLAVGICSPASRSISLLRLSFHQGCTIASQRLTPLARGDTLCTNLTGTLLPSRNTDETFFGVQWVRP

[2] = system: CD70-expressing tumour cells; conditions: Silence et al. (2014); cited from earlier work

For `Nc1ncn([C@H]2C[C@H](O)[C@@H](CO)O2)c(=O)n1` [decitabine], the IC50 (NB4 AML cells) was 4.8 nM, the IC50 (NOMO-1 AML cells; NOMO-1) was 0.001 nM and the IC50 (MV4-11 AML cells; MV4-11) was 2.36 nM. It also gave an IC50 (MOLM-13 AML cells; MOLM-13) of 0.01 nM.

In the case of `CC1(C)CCC(CN2CCN(c3ccc(C(=O)NS(=O)(=O)c4ccc(NCC5CCOCC5)c([N+](=O)[O-])c4)c(Oc4cnc5[nH]ccc5c4)c3)CC2)=C(c2ccc(Cl)cc2)C1` [venetoclax, 4-(4-{[2-(4-chlorophenyl)-4,4dimethylcyclohex-1-en-1-yl]methyl}piperazin-1-yl)-N-({3-nitro-4-[(tetrahydro-2H-pyran-4ylmethyl)amino]phenyl}sulfonyl)-2-(1H-pyrrolo[2,3-b]pyridin-5-yloxy)benzamide], the Aqueous solubility [1] is listed as “very low aqueous solubility”, the IC50 (NB4 AML cells; NB4, monotherapy, NK cells ratio 1:1, read-out: IC50) is listed as 17.3 nM and the IC50 (NOMO-1 AML cells; NOMO-1, monotherapy, NK cells ratio 1:1, read-out: IC50) is listed as 3.4 nM. The IC50 (MV4-11 AML cells; MV4-11, monotherapy, NK cells ratio 1:1, read-out: IC50) was 5 nM, the IC50 (MOLM-13 AML cells; MOLM-13, monotherapy, NK cells ratio 1:1, read-out: IC50) was 0.42 nM and the “CD70 expression (mRNA and protein)” value (CD70 expression) was “up-regulated”.

B1: cusatuzumab: IgG1 anti-CD70 antibody, ADCC-enhanced humanized monoclonal; VH SEQ ID NO: 4, VL SEQ ID NO: 8 (antibody, V domains shown)
VH: EVQLVESGGGLVQPGGSLRLSCAASGFTFSVYYMNWVRQAPGKGLEWVSDINNEGGTTYYADSVKGRFTISRDNSKNSLYLQMNSLRAEDTAVYYCARDAGYSNHVPIFDSWGQGTLVTVSS
VL: QAVVTQEPSLTVSPGGTVTLTCGLKSGSVTSDNFPTWYQQTPGQAPRLLIYNTNTRHSGVPDRFSGSILGNKAALTITGAQADDEAEYFCALFISNPSVEFGGGTQLTVLG
In the case of B1, the “CD70-induced CD27 signalling” value (CD27 signalling) is given as “inhibit CD70-induced CD27 signalling”, the “Interaction of CD70 with CD27” value (CD70) is given as “inhibit the interaction of CD70 with its receptor CD27” and the “Lysis of CD70-expressing tumour cells via ADCC and CDC” value [2] is given as “lyse CD70-expressing tumour cells”.
